In patent US10906910B2, “Substituted bicyclic pyrimidine compounds with tubulin and multiple receptor inhibition” (Duquesne University of the Holy Spirit, priority 2014, dated 2021):

Columns and labels:
Assay type in all cases: cell-based
[1] = system: SF-268; test: NCI 60 panel, CNS Cancer SF-268; conditions: Homo sapiens, read-out: Tumor cell inhibitory activity (NCI) GI50
[2] = system: OVCAR-4; test: NCI 60 panel, Ovarian cancer OVCAR-4; conditions: Homo sapiens, read-out: Tumor cell inhibitory activity (NCI) GI50
[3] = system: EKVX; test: NCI 60 panel, NSCLC EKVX; conditions: Homo sapiens, read-out: Tumor cell inhibitory activity (NCI) GI50
[4] = system: SK-OV-3; test: NCI 60 panel, Ovarian cancer SK-OV-3; conditions: Homo sapiens, read-out: Tumor cell inhibitory activity (NCI) GI50
[5] = system: HCT-15; test: NCI 60 panel, Colon Cancer HCT-15; conditions: Homo sapiens, read-out: Tumor cell inhibitory activity (NCI) GI50
[6] = system: TK10; test: NCI 60 panel, Renal Cancer TK10; conditions: Homo sapiens, TK-10, read-out: Tumor cell inhibitory activity (NCI) GI50
[7] = system: NCI-H522; test: NCI 60 panel, NSCLC NCI-H522; conditions: Homo sapiens, read-out: Tumor cell inhibitory activity (NCI) GI50
[8] = system: DU-145; test: NCI 60 panel, Prostate Cancer DU-145; conditions: Homo sapiens, read-out: Tumor cell inhibitory activity (NCI) GI50
[9] = system: OVCAR-3; test: NCI 60 panel, Ovarian cancer OVCAR-3; conditions: Homo sapiens, read-out: Tumor cell inhibitory activity (NCI) GI50
[10] = system: MCF7; test: NCI 60 panel, Breast Cancer MCF7; conditions: Homo sapiens, read-out: Tumor cell inhibitory activity (NCI) GI50
[11] = system: KM12; test: NCI 60 panel, Colon Cancer KM12; conditions: Homo sapiens, read-out: Tumor cell inhibitory activity (NCI) GI50
[12] = system: SR; test: NCI 60 panel, Leukemia SR; conditions: Homo sapiens, read-out: Tumor cell inhibitory activity (NCI) GI50
[13] = system: HOP-62; test: NCI 60 panel, NSCLC HOP-62; conditions: Homo sapiens, read-out: Tumor cell inhibitory activity (NCI) GI50
[14] = system: SNB-19; test: NCI 60 panel, CNS Cancer SNB-19; conditions: Homo sapiens, read-out: Tumor cell inhibitory activity (NCI) GI50
[15] = system: CAKI-1; test: NCI 60 panel, Renal Cancer CAKI-1; conditions: Homo sapiens, read-out: Tumor cell inhibitory activity (NCI) GI50
[16] = system: wild type HeLa cells; test: HeLa cytotoxicity, wild type; conditions: Homo sapiens
[17] = system: UACC-257; test: NCI 60 panel, Melanoma UACC-257; conditions: Homo sapiens, read-out: Tumor cell inhibitory activity (NCI) GI50
[18] = system: HOP-92; test: NCI 60 panel, NSCLC HOP-92; conditions: Homo sapiens, read-out: Tumor cell inhibitory activity (NCI) GI50
[19] = system: U251; test: NCI 60 panel, CNS Cancer U251; conditions: Homo sapiens, U-251, read-out: Tumor cell inhibitory activity (NCI) GI50
[20] = system: NCI-H322M; test: NCI 60 panel, NSCLC NCI-H322M; conditions: Homo sapiens, read-out: Tumor cell inhibitory activity (NCI) GI50
[21] = target: PDGFRβ (Homo sapiens, UniProt P09619); test: PDGFRβ kinase inhibition, whole-cell assay; conditions: whole-cell assay; read-out: kinase inhibition IC50 [whole-cell assays] PDGFRβ
Sequence of PDGFRβ (P09619 33-1106, species assumed): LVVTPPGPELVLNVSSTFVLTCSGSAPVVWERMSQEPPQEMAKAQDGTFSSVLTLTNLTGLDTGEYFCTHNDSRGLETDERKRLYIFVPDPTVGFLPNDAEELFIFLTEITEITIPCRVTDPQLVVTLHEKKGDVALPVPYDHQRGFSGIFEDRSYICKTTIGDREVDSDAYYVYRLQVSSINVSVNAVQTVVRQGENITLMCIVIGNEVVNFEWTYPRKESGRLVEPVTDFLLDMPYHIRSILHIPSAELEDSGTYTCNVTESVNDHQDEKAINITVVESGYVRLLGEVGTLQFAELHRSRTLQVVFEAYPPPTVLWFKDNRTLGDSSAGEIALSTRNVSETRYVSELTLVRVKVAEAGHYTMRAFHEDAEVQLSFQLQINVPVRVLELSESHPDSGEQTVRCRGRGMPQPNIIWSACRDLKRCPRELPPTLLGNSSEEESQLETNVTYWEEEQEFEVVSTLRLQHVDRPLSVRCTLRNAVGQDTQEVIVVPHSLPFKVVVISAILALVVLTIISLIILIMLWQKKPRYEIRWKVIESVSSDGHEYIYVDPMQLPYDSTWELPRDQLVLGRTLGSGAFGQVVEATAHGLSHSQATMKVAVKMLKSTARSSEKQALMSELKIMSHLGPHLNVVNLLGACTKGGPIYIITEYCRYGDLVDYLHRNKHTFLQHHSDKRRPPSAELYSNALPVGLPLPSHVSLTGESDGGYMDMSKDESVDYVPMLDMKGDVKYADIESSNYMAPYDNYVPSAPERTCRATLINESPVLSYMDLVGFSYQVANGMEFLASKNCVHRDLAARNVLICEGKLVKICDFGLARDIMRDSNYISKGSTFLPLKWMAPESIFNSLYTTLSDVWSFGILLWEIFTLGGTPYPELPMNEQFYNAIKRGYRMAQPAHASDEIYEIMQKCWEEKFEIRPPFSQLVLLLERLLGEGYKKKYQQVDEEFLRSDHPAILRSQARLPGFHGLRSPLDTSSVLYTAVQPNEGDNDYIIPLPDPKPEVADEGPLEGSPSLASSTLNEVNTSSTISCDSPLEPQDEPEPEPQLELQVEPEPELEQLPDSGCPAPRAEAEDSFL

[22] = system: A549/ATCC; test: NCI 60 panel, NSCLC A549/ATCC; conditions: Homo sapiens, read-out: Tumor cell inhibitory activity (NCI) GI50
[23] = system: CCRF-CEM; test: NCI 60 panel, Leukemia CCRF-CEM; conditions: Homo sapiens, read-out: Tumor cell inhibitory activity (NCI) GI50
[24] = system: SK-MEL-5; test: NCI 60 panel, Melanoma SK-MEL-5; conditions: Homo sapiens, read-out: Tumor cell inhibitory activity (NCI) GI50
[25] = system: MDA-MB-435; test: NCI 60 panel, Melanoma MDA-MB-435; conditions: Homo sapiens, read-out: Tumor cell inhibitory activity (NCI) GI50
[26] = system: M14; test: NCI 60 panel, Melanoma M14; conditions: Homo sapiens, read-out: Tumor cell inhibitory activity (NCI) GI50
[27] = system: IGROVI; test: NCI 60 panel, Ovarian cancer IGROVI; conditions: read-out: Tumor cell inhibitory activity (NCI) GI50
[28] = system: MOLT-4; test: NCI 60 panel, Leukemia MOLT-4; conditions: Homo sapiens, read-out: Tumor cell inhibitory activity (NCI) GI50
[29] = system: SF-539; test: NCI 60 panel, CNS Cancer SF-539; conditions: Homo sapiens, read-out: Tumor cell inhibitory activity (NCI) GI50
[30] = system: NCI 60 tumor cell line panel; test: NCI 60 tumor cell line panel, overall
[31] = system: NCI/ADR-RES; test: NCI 60 panel, Ovarian cancer NCI/ADR-RES; conditions: Homo sapiens, read-out: Tumor cell inhibitory activity (NCI) GI50
[32] = system: UACC-62; test: NCI 60 panel, Melanoma UACC-62; conditions: Homo sapiens, read-out: Tumor cell inhibitory activity (NCI) GI50
[33] = system: UO-31; test: NCI 60 panel, Renal Cancer UO-31; conditions: Homo sapiens, read-out: Tumor cell inhibitory activity (NCI) GI50
[34] = system: K-562; test: NCI 60 panel, Leukemia K-562; conditions: Homo sapiens, K562, read-out: Tumor cell inhibitory activity (NCI) GI50
[35] = system: SNB-75; test: NCI 60 panel, CNS Cancer SNB-75; conditions: Homo sapiens, read-out: Tumor cell inhibitory activity (NCI) GI50
[36] = system: COLO 205; test: NCI 60 panel, Colon Cancer COLO 205; conditions: Homo sapiens, read-out: Tumor cell inhibitory activity (NCI) GI50
[37] = system: NCI-H23; test: NCI 60 panel, NSCLC NCI-H23; conditions: Homo sapiens, read-out: Tumor cell inhibitory activity (NCI) GI50
[38] = system: MDA-MB-231/ATCC; test: NCI 60 panel, Breast Cancer MDA-MB-231/ATCC; conditions: Homo sapiens, read-out: Tumor cell inhibitory activity (NCI) GI50
[39] = system: SK-MEL-28; test: NCI 60 panel, Melanoma SK-MEL-28; conditions: Homo sapiens, read-out: Tumor cell inhibitory activity (NCI) GI50
[40] = system: ACHN; test: NCI 60 panel, Renal Cancer ACHN; conditions: Homo sapiens, read-out: Tumor cell inhibitory activity (NCI) GI50
[41] = system: MDA-MB-468; test: NCI 60 panel, Breast Cancer MDA-MB-468; conditions: Homo sapiens, read-out: Tumor cell inhibitory activity (NCI) GI50
[42] = system: NCI-H226; test: NCI 60 panel, NSCLC NCI-H226; conditions: Homo sapiens, read-out: Tumor cell inhibitory activity (NCI) GI50
[43] = system: OVCAR-8; test: NCI 60 panel, Ovarian cancer OVCAR-8; conditions: Homo sapiens, read-out: Tumor cell inhibitory activity (NCI) GI50
[44] = system: RXF 393; test: NCI 60 panel, Renal Cancer RXF 393; conditions: Homo sapiens, read-out: Tumor cell inhibitory activity (NCI) GI50
[45] = system: 786-0; test: NCI 60 panel, Renal Cancer 786-0; conditions: Homo sapiens, read-out: Tumor cell inhibitory activity (NCI) GI50
[46] = system: SN12C; test: NCI 60 panel, Renal Cancer SN12C; conditions: Homo sapiens, read-out: Tumor cell inhibitory activity (NCI) GI50
[47] = system: BT-549; test: NCI 60 panel, Breast Cancer BT-549; conditions: Homo sapiens, read-out: Tumor cell inhibitory activity (NCI) GI50
[48] = system: T-47D; test: NCI 60 panel, Breast Cancer T-47D; conditions: Homo sapiens, T47D, read-out: Tumor cell inhibitory activity (NCI) GI50
[49] = system: OVCAR-5; test: NCI 60 panel, Ovarian cancer OVCAR-5; conditions: Homo sapiens, read-out: Tumor cell inhibitory activity (NCI) GI50
[50] = system: HCT-116; test: NCI 60 panel, Colon Cancer HCT-116; conditions: Homo sapiens, read-out: Tumor cell inhibitory activity (NCI) GI50
[51] = system: HCC-2998; test: NCI 60 panel, Colon Cancer HCC-2998; conditions: Homo sapiens, read-out: Tumor cell inhibitory activity (NCI) GI50
[52] = system: RPMI-8226; test: NCI 60 panel, Leukemia RPMI-8226; conditions: Homo sapiens, read-out: Tumor cell inhibitory activity (NCI) GI50
[53] = system: HL-60(TB); test: NCI 60 panel, Leukemia HL-60(TB); conditions: Homo sapiens, read-out: Tumor cell inhibitory activity (NCI) GI50
[54] = system: A498; test: NCI 60 panel, Renal Cancer A498; conditions: Homo sapiens, read-out: Tumor cell inhibitory activity (NCI) GI50
[55] = system: SW-620; test: NCI 60 panel, Colon Cancer SW-620; conditions: Homo sapiens, read-out: Tumor cell inhibitory activity (NCI) GI50
[56] = system: MALME-3M; test: NCI 60 panel, Melanoma MALME-3M; conditions: Homo sapiens, read-out: Tumor cell inhibitory activity (NCI) GI50
[57] = system: LOX IMVI; test: NCI 60 panel, Melanoma LOX IMVI; conditions: Homo sapiens, read-out: Tumor cell inhibitory activity (NCI) GI50
[58] = system: HS 578T; test: NCI 60 panel, Breast Cancer HS 578T; conditions: Homo sapiens, read-out: Tumor cell inhibitory activity (NCI) GI50
[59] = target: EGFR (Homo sapiens, UniProt P00533); test: EGFR kinase inhibition, whole-cell assay; conditions: read-out: kinase inhibition IC50 [whole-cell assays] EGFR
Sequence of EGFR (P00533 25-1210, species assumed): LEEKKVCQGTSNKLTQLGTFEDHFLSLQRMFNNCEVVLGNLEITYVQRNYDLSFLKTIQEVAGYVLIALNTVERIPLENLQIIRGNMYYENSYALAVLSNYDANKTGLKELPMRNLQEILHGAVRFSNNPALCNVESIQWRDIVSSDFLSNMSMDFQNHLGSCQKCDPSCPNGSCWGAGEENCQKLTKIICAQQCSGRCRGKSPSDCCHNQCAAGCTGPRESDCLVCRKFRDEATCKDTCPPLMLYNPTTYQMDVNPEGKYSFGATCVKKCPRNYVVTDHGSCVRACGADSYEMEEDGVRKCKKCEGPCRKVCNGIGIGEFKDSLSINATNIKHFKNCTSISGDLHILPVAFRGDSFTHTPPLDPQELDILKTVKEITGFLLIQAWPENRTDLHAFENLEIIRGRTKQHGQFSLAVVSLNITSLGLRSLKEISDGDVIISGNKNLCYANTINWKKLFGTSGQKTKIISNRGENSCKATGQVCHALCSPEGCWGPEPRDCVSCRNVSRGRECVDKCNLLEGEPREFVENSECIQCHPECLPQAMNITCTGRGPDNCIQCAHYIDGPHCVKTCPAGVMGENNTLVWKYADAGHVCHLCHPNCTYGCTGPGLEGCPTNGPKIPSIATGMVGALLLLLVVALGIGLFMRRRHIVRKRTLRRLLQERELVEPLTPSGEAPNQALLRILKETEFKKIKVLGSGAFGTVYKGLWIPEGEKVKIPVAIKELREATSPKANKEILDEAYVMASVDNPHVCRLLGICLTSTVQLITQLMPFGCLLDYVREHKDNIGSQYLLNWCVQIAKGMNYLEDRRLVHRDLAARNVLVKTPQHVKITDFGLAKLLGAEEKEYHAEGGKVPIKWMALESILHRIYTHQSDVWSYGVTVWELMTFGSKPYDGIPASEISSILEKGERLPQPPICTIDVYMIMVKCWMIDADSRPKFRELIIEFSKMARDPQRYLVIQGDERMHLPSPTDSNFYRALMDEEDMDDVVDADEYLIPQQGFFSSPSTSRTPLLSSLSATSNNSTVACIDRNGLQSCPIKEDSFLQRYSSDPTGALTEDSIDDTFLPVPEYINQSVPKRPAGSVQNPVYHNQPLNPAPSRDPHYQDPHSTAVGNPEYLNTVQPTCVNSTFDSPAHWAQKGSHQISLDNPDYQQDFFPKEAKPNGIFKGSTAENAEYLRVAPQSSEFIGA

[60] = system: NCI-H460; test: NCI 60 panel, NSCLC NCI-H460; conditions: Homo sapiens, read-out: Tumor cell inhibitory activity (NCI) GI50
[61] = system: SF-295; test: NCI 60 panel, CNS Cancer SF-295; conditions: Homo sapiens, read-out: Tumor cell inhibitory activity (NCI) GI50

COc1ccc2c(c1)CCCN2c1nc(C)nc2c(Cc3ccccc3)c[nH]c12 [Compound 2, 1-(7-Benzyl-2-methyl-5H-pyrrolo[3,2-d]pyrimidin-4-yl)-6-methoxy-1,2,3,4-tetrahydroquinoline]
GI50 [1]: 723 nM | GI50 [2]: 468 nM | GI50 [3]: 463 nM | GI50 [4]: 423 nM | GI50 [5]: 366 nM | GI50 [6]: 123 nM | GI50 [7]: 316 nM | GI50 [8]: 383 nM | GI50 [9]: 285 nM | GI50 [10]: 248 nM | GI50 [11]: 366 nM | GI50 [12]: 922 nM | GI50 [13]: 379 nM | GI50 [14]: 549 nM | GI50 [15]: 341 nM | IC50 [16]: 250 nM | GI50 [17]: 108 nM | GI50 [18]: 189 nM | GI50 [19]: 316 nM | GI50 [20]: 362 nM | IC50 [21]: 90.3 nM | GI50 [22]: 406 nM | GI50 [23]: 226 nM | GI50 [24]: 325 nM | GI50 [25]: 341 nM | GI50 [26]: 252 nM | GI50 [27]: 440 nM | GI50 [28]: 345 nM | GI50 [29]: 260 nM | GI50 across the NCI 60 tumor cell line panel, in words [30]: 2- to 3-digit nanomolar | GI50 [31]: 265 nM | GI50 [32]: 659 nM | GI50 [33]: 390 nM | GI50 [34]: 111 nM | GI50 [35]: 182 nM | GI50 [36]: 232 nM | GI50 [37]: 320 nM | GI50 [38]: 641 nM | GI50 [39]: 368 nM | GI50 [40]: 830 nM | GI50 [41]: 153 nM | GI50 [42]: 136 nM | GI50 [43]: 487 nM | GI50 [44]: 212 nM | GI50 [45]: 934 nM | GI50 [46]: 618 nM | GI50 [47]: 755 nM | GI50 [48]: 128 nM | GI50 [49]: 543 nM | GI50 [50]: 368 nM | GI50 [51]: 318 nM | GI50 [52]: 266 nM | GI50 [53]: 222 nM | GI50 [54]: 197 nM | GI50 [55]: 370 nM | GI50 [56]: 330 nM | GI50 [57]: 521 nM | GI50 [58]: 582 nM | IC50 [59]: 33.6 nM | GI50 [60]: 337 nM | GI50 [61]: 192 nM
